Measured values published in ChEMBL document CHEMBL4229379, “Synthesis and structure-activity relationship of novel bisindole amidines active against MDR Gram-positive and Gram-negative bacteria” (Eur J Med Chem, 2018).
In brackets after ≈: the same amount, converted by molar mass.

What was measured:
[1] = tested on: Staphylococcus epidermidis; experiment: Antibacterial activity against methicillin-sensitive Staphylococcus epidermidis ATCC 12228 after 18 hrs by CLSI broth microdilution method; format: functional; details: ATCC 12228, 18 h
[2] = tested on: Staphylococcus epidermidis; experiment: Antibacterial activity against methicillin-resistant Staphylococcus epidermidis 12-8 after 18 hrs by CLSI broth microdilution method; format: functional; details: 12-8, 18 h
Staphylococcus aureus [3] = experiment: Antibacterial activity against methicillin-sensitive Staphylococcus aureus ATCC 29213 after 18 hrs by CLSI broth microdilution method; format: functional; details: ATCC 29213, 18 h
Staphylococcus aureus [4] = experiment: Antibacterial activity against methicillin-resistant Staphylococcus aureus 12-33 after 18 hrs by CLSI broth microdilution method; format: functional; details: 12-33, 18 h
Enterococcus faecalis [5] = experiment: Antibacterial activity against vancomycin-sensitive Enterococcus faecalis ATCC 29212 after 18 hrs by CLSI broth microdilution method; format: functional; details: ATCC 29212, 18 h
Enterococcus faecalis [6] = experiment: Antibacterial activity against vancomycin-resistant Enterococcus faecalis 09-9 after 18 hrs by CLSI broth microdilution method; format: functional; details: 09-9, 18 h
Enterococcus faecium [7] = experiment: Antibacterial activity against vancomycin-resistant Enterococcus faecium ATCC 700221 after 18 hrs by CLSI broth microdilution method; format: functional; details: ATCC 700221, 18 h
Enterococcus faecium [8] = experiment: Antibacterial activity against vancomycin-sensitive Enterococcus faecium 12-3 after 18 hrs by CLSI broth microdilution method; format: functional; details: 12-3, 18 h
Escherichia coli [9] = experiment: Antibacterial activity against extended-spectrum beta-lactamase deficient Escherichia coli ATCC 25922 after 18 hrs by CLSI broth microdilution method; format: functional; details: ATCC 25922, 18 h
Escherichia coli [10] = experiment: Antibacterial activity against extended-spectrum beta-lactamase harboring Escherichia coli 12-15 after 18 hrs by CLSI broth microdilution method; format: functional; details: 12-15, 18 h
Klebsiella pneumoniae [11] = experiment: Antibacterial activity against extended-spectrum beta-lactamase harboring Klebsiella pneumoniae ATCC 700603 after 18 hrs by CLSI broth microdilution method; format: functional; details: Klebsiella pneumoniae, 700603, 18 h
Klebsiella pneumoniae [12] = experiment: Antibacterial activity against new delhi metallo-beta-lactamase-1 harboring Klebsiella pneumoniae ATCC BAA-2146 after 18 hrs by CLSI broth microdilution method; format: functional; details: ATCC BAA-2146, 18 h
Klebsiella pneumoniae [13] = experiment: Antibacterial activity against extended-spectrum beta-lactamase harboring Klebsiella pneumoniae 12-8 after 18 hrs by CLSI broth microdilution method; format: functional; details: 12-8, 18 h
Pseudomonas aeruginosa [14] = experiment: Antibacterial activity against Pseudomonas aeruginosa ATCC 27853 after 18 hrs by CLSI broth microdilution method; format: functional; details: ATCC 27853, 18 h
[15] = tested on: Acinetobacter calcoaceticus; experiment: Antibacterial activity against Acinetobacter calcoaceticus ATCC 19606 after 18 hrs by CLSI broth microdilution method; format: functional; details: ATCC 19606, 18 h
Enterobacter cloacae = experiment: Antibacterial activity against Enterobacter cloacae ATCC 43560 after 18 hrs by CLSI broth microdilution method; format: functional; details: ATCC 43560, 18 h
Proteus mirabilis = experiment: Antibacterial activity against Proteus mirabilis 12-6 after 18 hrs by CLSI broth microdilution method; format: functional; details: 12-6, 18 h
[16] = Cytotoxicity against HEK293T cells assessed as reduction in cell viability after 48 hrs by MTS assay; format: cell-based, HEK-293T; details: human
[17] = tested on: Staphylococcus epidermidis; experiment: Antibacterial activity against methicillin-sensitive Staphylococcus epidermidis 12-6 after 18 hrs by CLSI broth microdilution method; format: functional; details: 12-6, 18 h
Staphylococcus aureus [18] = experiment: Antibacterial activity against methicillin-resistant Staphylococcus aureus ATCC 33591 after 18 hrs by CLSI broth microdilution method; format: functional; details: ATCC 33591, 18 h
Staphylococcus aureus [19] = experiment: Antibacterial activity against methicillin-sensitive Staphylococcus aureus 15 after 18 hrs by CLSI broth microdilution method; format: functional; details: Staphylococcus aureus, 15, 18 h
Staphylococcus aureus [20] = experiment: Antibacterial activity against methicillin-sensitive Staphylococcus aureus 12-28 after 18 hrs by CLSI broth microdilution method; format: functional; details: 12-28, 18 h
Enterococcus faecalis [21] = experiment: Antibacterial activity against vancomycin-resistant Enterococcus faecalis ATCC 51299 after 18 hrs by CLSI broth microdilution method; format: functional; details: ATCC 51299, 18 h
Enterococcus faecalis [22] = experiment: Antibacterial activity against vancomycin-sensitive Enterococcus faecalis 12-5 after 18 hrs by CLSI broth microdilution method; format: functional; details: 12-5, 18 h
Enterococcus faecium [23] = experiment: Antibacterial activity against vancomycin-resistant Enterococcus faecium 12-1 after 18 hrs by CLSI broth microdilution method; format: functional; details: 12-1, 18 h
Escherichia coli [24] = experiment: Antibacterial activity against extended-spectrum beta-lactamase deficient Escherichia coli 1515 after 18 hrs by CLSI broth microdilution method; format: functional; details: Escherichia coli, 1515, 18 h
Escherichia coli [25] = experiment: Antibacterial activity against extended-spectrum beta-lactamase deficient Escherichia coli 12-14 after 18 hrs by CLSI broth microdilution method; format: functional; details: 12-14, 18 h
Klebsiella pneumoniae [26] = experiment: Antibacterial activity against extended-spectrum beta-lactamase deficient Klebsiella pneumoniae 7 after 18 hrs by CLSI broth microdilution method; format: functional; details: Klebsiella pneumoniae, 7, 18 h
Klebsiella pneumoniae [27] = experiment: Antibacterial activity against extended-spectrum beta-lactamase deficient Klebsiella pneumoniae 12-4 after 18 hrs by CLSI broth microdilution method; format: functional; details: 12-4, 18 h
Pseudomonas aeruginosa [28] = experiment: Antibacterial activity against Pseudomonas aeruginosa PAO1 after 18 hrs by CLSI broth microdilution method; format: functional; details: PAO1, 18 h
Pseudomonas aeruginosa [29] = experiment: Antibacterial activity against Pseudomonas aeruginosa 12-16 after 18 hrs by CLSI broth microdilution method; format: functional; details: 12-16, 18 h
Klebsiella aerogenes = experiment: Antibacterial activity against Enterobacter aerogenes ATCC 13048 after 18 hrs by CLSI broth microdilution method; format: functional; details: ATCC 13048, 18 h
Serratia marcescens = experiment: Antibacterial activity against Serratia marcescens ATCC 21074 after 18 hrs by CLSI broth microdilution method; format: functional; details: ATCC 21074, 18 h
Providencia rettgeri = experiment: Antibacterial activity against Providencia rettgeri ATCC 31052 after 18 hrs by CLSI broth microdilution method; format: functional; details: ATCC 31052, 18 h
Proteus vulgaris = experiment: Antibacterial activity against Proteus vulgaris ATCC 29905 after 18 hrs by CLSI broth microdilution method; format: functional; details: ATCC 29905, 18 h
[30] = tested on: Stenotrophomonas maltophilia; experiment: Antibacterial activity against Stenotrophomonas maltophilia ATCC 13636 after 18 hrs by CLSI broth microdilution method; format: functional; details: ATCC 13636, 18 h
Citrobacter freundii = experiment: Antibacterial activity against Citrobacter freundii ATCC 43864 after 18 hrs by CLSI broth microdilution method; format: functional; details: ATCC 43864, 18 h

SMILES	MIC [1]	MIC [2]	MIC (Staphylococcus aureus [3])	MIC (Staphylococcus aureus [4])	MIC (Enterococcus faecalis [5])	MIC (Enterococcus faecalis [6])	MIC (Enterococcus faecium [7])	MIC (Enterococcus faecium [8])	MIC (Escherichia coli [9])	MIC (Escherichia coli [10])	MIC (Klebsiella pneumoniae [11])	MIC (Klebsiella pneumoniae [12])	MIC (Klebsiella pneumoniae [13])	MIC (Pseudomonas aeruginosa [14])	MIC [15]	MIC (Enterobacter cloacae)	MIC (Proteus mirabilis)	CC50 at 48 h [16]	MIC [17]	MIC (Staphylococcus aureus [18])	also measured
CN1CCC2(CC1)CCN(C(=N)c1ccc3cc(-c4ccc(-c5cc6ccc(C(=N)N7CCC8(CCN(C)CC8)C7)cc6[nH]5)cc4)[nH]c3c1)C2	2 µg/mL (≈ 3 µM)	4 µg/mL (≈ 6 µM)	8 µg/mL (≈ 12 µM)	8 µg/mL (≈ 12 µM)	16 µg/mL (≈ 24 µM)	16 µg/mL (≈ 24 µM)	16 µg/mL (≈ 24 µM)	16 µg/mL (≈ 24 µM)	8 µg/mL (≈ 12 µM)	16 µg/mL (≈ 24 µM)	64 µg/mL (≈ 96 µM)	16 µg/mL (≈ 24 µM)	16 µg/mL (≈ 24 µM)	32 µg/mL (≈ 48 µM)	> 128 µg/mL	> 128 µg/mL	> 128 µg/mL	28.4 µg/mL (≈ 42.7 µM)	8 µg/mL (≈ 12 µM)	8 µg/mL (≈ 12 µM)	MIC (Staphylococcus aureus [19]): 8 µg/mL (≈ 12 µM); MIC (Staphylococcus aureus [20]): 16 µg/mL (≈ 24 µM); MIC (Enterococcus faecalis [21]): 16 µg/mL (≈ 24 µM); MIC (Enterococcus faecalis [22]): 128 µg/mL (≈ 192 µM); MIC (Enterococcus faecium [23]): 16 µg/mL (≈ 24 µM); MIC (Escherichia coli [24]): 8 µg/mL (≈ 12 µM); MIC (Escherichia coli [25]): 16 µg/mL (≈ 24 µM); MIC (Klebsiella pneumoniae [26]): 8 µg/mL (≈ 12 µM); MIC (Klebsiella pneumoniae [27]): 16 µg/mL (≈ 24 µM); MIC (Pseudomonas aeruginosa [28]): 64 µg/mL (≈ 96 µM); MIC (Pseudomonas aeruginosa [29]): 128 µg/mL (≈ 192 µM); MIC (Klebsiella aerogenes): 16 µg/mL (≈ 24 µM); MIC (Serratia marcescens): > 128 µg/mL; MIC (Providencia rettgeri): > 128 µg/mL; MIC (Proteus vulgaris): 128 µg/mL (≈ 192 µM); MIC [30]: > 128 µg/mL; MIC (Citrobacter freundii): 16 µg/mL (≈ 24 µM)
CCN(C)C(=N)c1ccc2cc(-c3ccc(-c4cc5ccc(C(=N)N(C)CC)cc5[nH]4)cc3)[nH]c2c1	0.25 µg/mL (≈ 0.525 µM)	0.5 µg/mL (≈ 1.05 µM)	0.5 µg/mL (≈ 1.05 µM)	1 µg/mL (≈ 2.1 µM)	1 µg/mL (≈ 2.1 µM)	2 µg/mL (≈ 4.2 µM)	1 µg/mL (≈ 2.1 µM)	1 µg/mL (≈ 2.1 µM)	1 µg/mL (≈ 2.1 µM)	2 µg/mL (≈ 4.2 µM)	8 µg/mL (≈ 16.8 µM)	4 µg/mL (≈ 8.39 µM)	4 µg/mL (≈ 8.39 µM)	8 µg/mL (≈ 16.8 µM)	4 µg/mL (≈ 8.39 µM)	2 µg/mL (≈ 4.2 µM)	8 µg/mL (≈ 16.8 µM)	17 µg/mL (≈ 35.8 µM)	0.25 µg/mL (≈ 0.525 µM)	0.5 µg/mL (≈ 1.05 µM)	MIC (Staphylococcus aureus [19]): 0.5 µg/mL (≈ 1.05 µM); MIC (Staphylococcus aureus [20]): 0.5 µg/mL (≈ 1.05 µM); MIC (Enterococcus faecalis [21]): 2 µg/mL (≈ 4.2 µM); MIC (Enterococcus faecalis [22]): 2 µg/mL (≈ 4.2 µM); MIC (Enterococcus faecium [23]): 0.5 µg/mL (≈ 1.05 µM); MIC (Escherichia coli [24]): 2 µg/mL (≈ 4.2 µM); MIC (Escherichia coli [25]): 2 µg/mL (≈ 4.2 µM); MIC (Klebsiella pneumoniae [26]): 4 µg/mL (≈ 8.39 µM); MIC (Klebsiella pneumoniae [27]): 4 µg/mL (≈ 8.39 µM); MIC (Pseudomonas aeruginosa [28]): 128 µg/mL (≈ 269 µM); MIC (Pseudomonas aeruginosa [29]): 128 µg/mL (≈ 269 µM); MIC (Klebsiella aerogenes): 2 µg/mL (≈ 4.2 µM); MIC (Serratia marcescens): 16 µg/mL (≈ 33.6 µM); MIC (Providencia rettgeri): 4 µg/mL (≈ 8.39 µM); MIC (Proteus vulgaris): 4 µg/mL (≈ 8.39 µM); MIC [30]: 8 µg/mL (≈ 16.8 µM); MIC (Citrobacter freundii): 2 µg/mL (≈ 4.2 µM)
CN(C)CCNC(=N)c1ccc2cc(-c3ccc(-c4cc5ccc(C(=N)NCCN(C)C)cc5[nH]4)cc3)[nH]c2c1	0.5 µg/mL (≈ 0.935 µM)	1 µg/mL (≈ 1.87 µM)	2 µg/mL (≈ 3.74 µM)	2 µg/mL (≈ 3.74 µM)	4 µg/mL (≈ 7.48 µM)	4 µg/mL (≈ 7.48 µM)	4 µg/mL (≈ 7.48 µM)	8 µg/mL (≈ 15 µM)	8 µg/mL (≈ 15 µM)	16 µg/mL (≈ 29.9 µM)	16 µg/mL (≈ 29.9 µM)	8 µg/mL (≈ 15 µM)	8 µg/mL (≈ 15 µM)	16 µg/mL (≈ 29.9 µM)	> 128 µg/mL	8 µg/mL (≈ 15 µM)	128 µg/mL (≈ 239 µM)	31.2 µg/mL (≈ 58.4 µM)	0.5 µg/mL (≈ 0.935 µM)	2 µg/mL (≈ 3.74 µM)	MIC (Staphylococcus aureus [19]): 2 µg/mL (≈ 3.74 µM); MIC (Staphylococcus aureus [20]): 2 µg/mL (≈ 3.74 µM); MIC (Enterococcus faecalis [21]): 4 µg/mL (≈ 7.48 µM); MIC (Enterococcus faecalis [22]): 4 µg/mL (≈ 7.48 µM); MIC (Enterococcus faecium [23]): 4 µg/mL (≈ 7.48 µM); MIC (Escherichia coli [24]): 8 µg/mL (≈ 15 µM); MIC (Escherichia coli [25]): 8 µg/mL (≈ 15 µM); MIC (Klebsiella pneumoniae [26]): 8 µg/mL (≈ 15 µM); MIC (Klebsiella pneumoniae [27]): 8 µg/mL (≈ 15 µM); MIC (Pseudomonas aeruginosa [28]): 64 µg/mL (≈ 120 µM); MIC (Pseudomonas aeruginosa [29]): 64 µg/mL (≈ 120 µM); MIC (Klebsiella aerogenes): 8 µg/mL (≈ 15 µM); MIC (Serratia marcescens): 16 µg/mL (≈ 29.9 µM); MIC (Providencia rettgeri): 16 µg/mL (≈ 29.9 µM); MIC (Proteus vulgaris): 16 µg/mL (≈ 29.9 µM); MIC [30]: 16 µg/mL (≈ 29.9 µM); MIC (Citrobacter freundii): 8 µg/mL (≈ 15 µM)
